According to ChEMBL document CHEMBL4311991, “Design, synthesis, and biological evaluation of 1-substituted -2-aryl imidazoles targeting tubulin polymerization as potential anticancer agents” (Eur J Med Chem, 2019):

Legend:
MDA-MB-468 = assay: Antiproliferative activity against human MDA-MB-468 cells assessed as reduction in cell viability after 72 hrs by MTT assay; format: functional, cell-based; conditions: MDA-MB-468, 72 h
MDA-MB-231 = assay: Antiproliferative activity against human MDA-MB-231 cells assessed as reduction in cell viability after 72 hrs by MTT assay; format: functional, cell-based; conditions: MDA-MB-231, 72 h
T47D = assay: Antiproliferative activity against human T47D cells assessed as reduction in cell viability after 72 hrs by MTT assay; format: functional, cell-based
HCT-15 = assay: Antiproliferative activity against human HCT15 cells assessed as reduction in cell viability after 72 hrs by MTT assay; format: functional, cell-based; conditions: HCT-15, 72 h
HeLa = assay: Antiproliferative activity against human HeLa cells assessed as reduction in cell viability after 72 hrs by MTT assay; format: functional, cell-based
HT-29 = assay: Antiproliferative activity against human HT-29 cells assessed as reduction in cell viability after 72 hrs by MTT assay; format: functional, cell-based; conditions: HT-29, 72 h
HUVEC = assay: Cytotoxicity against HUVEC assessed as reduction in cell viability after 72 hrs by MTT assay; format: cell-based; conditions: Homo sapiens

| Compound | IC50 (MDA-MB-468) [µM] | IC50 (MDA-MB-231) [µM] | IC50 (T47D) [µM] | IC50 (HCT-15) [µM] | IC50 (HeLa) [µM] | IC50 (HT-29) [µM] | IC50 (HUVEC) [µM] |
| --- | --- | --- | --- | --- | --- | --- | --- |
| COc1ccc(OC(=O)c2cc(OC)c(OC)c(OC)c2)cc1[N+](=O)[O-] | > 100 | > 100 | > 100 | > 100 | > 100 | > 100 | – |
| COc1cc(-c2nccn2-c2ccc(C)cc2)cc(OC)c1OC | 0.4 | 4.1 | 20.5 | 0.8 | 0.7 | 1.6 | > 100 |
| COc1cc(-c2nccn2-c2ccc3[nH]ccc3c2)cc(OC)c1OC | 2.3 | 4.3 | 2.1 | 4.6 | 4.4 | 9.1 | 46.7 |
| COc1cc(-c2nccn2-c2cccc([N+](=O)[O-])c2)cc(OC)c1OC | 7.2 | > 100 | 17.9 | > 100 | 6.7 | > 100 | > 100 |
| CCn1ccnc1-c1cc(OC)c(OC)c(OC)c1 | > 100 | > 100 | > 100 | > 100 | > 100 | > 100 | – |
| CCCCn1ccnc1-c1cc(OC)c(OC)c(OC)c1 | 44.1 | 70.4 | > 100 | > 100 | > 100 | > 100 | – |
| COc1cc(-c2nccn2Cc2ccccc2)cc(OC)c1OC | > 100 | > 100 | > 100 | > 100 | > 100 | > 100 | – |
| COc1ccc(C(=O)Nc2cc(OC)c(OC)c(OC)c2)cc1N | > 100 | 94.2 | > 100 | > 100 | > 100 | > 100 | – |
| COc1cc(-c2nccn2C(C)C)cc(OC)c1OC | > 100 | > 100 | > 100 | > 100 | > 100 | > 100 | – |
| COc1cc(-c2nccn2-c2ccc3sccc3c2)cc(OC)c1OC | 0.4 | 16.8 | 17 | 3.3 | 1.4 | 1.5 | – |
| COc1ccc(-n2ccnc2-c2cc(OC)c(OC)c(OC)c2)cc1 | 0.5 | 2.7 | 1.4 | 1.3 | 1.2 | 13.1 | > 50 |
| COc1ccc(-n2ccnc2-c2cc(OC)c(OC)c(OC)c2)cc1[N+](=O)[O-] | 0.1 | 7.5 | 10 | 1 | 2.5 | 0.6 | – |
| COc1cc(OC)cc(-n2ccnc2-c2cc(OC)c(OC)c(OC)c2)c1 | 57.5 | 45.2 | > 100 | > 100 | 41.4 | 74.5 | – |
| COc1cc(-c2nccn2C)cc(OC)c1OC | > 100 | > 100 | > 100 | > 100 | > 100 | > 100 | – |
| COc1cc(-c2nccn2-c2ccc(F)cc2)cc(OC)c1OC | 62.2 | 38.4 | > 100 | 68.6 | 17.5 | 29.3 | – |
| COc1ccc(C(=O)Nc2cc(OC)c(OC)c(OC)c2)cc1[N+](=O)[O-] | 3 | 5.7 | 6 | 2 | 3.7 | 8.3 | – |

| Compound | IC50 (MDA-MB-468) [µM] | IC50 (MDA-MB-231) [µM] | IC50 (T47D) [µM] | IC50 (HCT-15) [µM] | IC50 (HeLa) [µM] | IC50 (HT-29) [µM] | IC50 (HUVEC) [µM] |
| --- | --- | --- | --- | --- | --- | --- | --- |
| COc1cc(-c2nccn2CC(C)C)cc(OC)c1OC | > 100 | > 100 | > 100 | > 100 | > 100 | > 100 | – |
| COc1ccc(C(=O)Oc2cc(OC)c(OC)c(OC)c2)cc1[N+](=O)[O-] | 35.2 | > 100 | 29.6 | > 100 | > 100 | > 100 | – |
| COc1cc(-c2nccn2-c2ccc3cc[nH]c3c2)cc(OC)c1OC | 1.7 | 7.5 | 18 | 4 | 4.8 | 3.6 | 40 |
| COc1ccc(-n2ccnc2-c2cc(OC)c(OC)c(OC)c2)cc1O | 0.3 | 1.9 | 53.1 | 0.2 | 0.1 | 16.9 | 54.2 |
| CCCCCn1ccnc1-c1cc(OC)c(OC)c(OC)c1 | 57.9 | 34.2 | 64.4 | > 100 | > 100 | 60.1 | – |
| COc1ccc(NC(=O)c2cc(OC)c(OC)c(OC)c2)cc1N | 2 | 18.6 | 50.4 | 6.5 | 4.1 | 1.2 | – |
| COc1cc(-c2nccn2S(=O)(=O)c2ccc(C)cc2)cc(OC)c1OC | > 100 | > 100 | > 100 | > 100 | > 100 | > 100 | – |
| COc1ccc(C(=O)Oc2cc(OC)c(OC)c(OC)c2)cc1N | > 100 | > 100 | > 100 | > 100 | > 100 | > 100 | – |
| CCCn1ccnc1-c1cc(OC)c(OC)c(OC)c1 | > 100 | > 100 | > 100 | > 100 | > 100 | > 100 | – |
| COc1cc(-c2nccn2S(=O)(=O)c2ccccc2)cc(OC)c1OC | > 100 | > 100 | > 100 | > 100 | > 100 | > 100 | – |
| COc1cc(-c2nccn2-c2cccc(C)c2)cc(OC)c1OC | 22.6 | 11.7 | 29.3 | 1.6 | 1.9 | 14.6 | > 100 |
| COc1ccc(NC(=O)c2cc(OC)c(OC)c(OC)c2)cc1[N+](=O)[O-] | 2.9 | 31 | 34.5 | 17.6 | 38.7 | 9.7 | – |
| COc1cc(-c2nccn2-c2cccc3ccccc23)cc(OC)c1OC | 6.2 | 8 | 15 | 25.4 | 31 | 14.7 | – |
| COc1cccc(-n2ccnc2-c2cc(OC)c(OC)c(OC)c2)c1 | 10.4 | 18.3 | 32.2 | 17.1 | 11 | 18.9 | – |
| COc1ccc(OC(=O)c2cc(OC)c(OC)c(OC)c2)cc1N | > 100 | > 100 | > 100 | > 100 | > 100 | > 100 | – |
| COc1cc(-c2nccn2-c2ccc(Br)cc2)cc(OC)c1OC | 2.7 | 8.4 | 24.6 | 11.7 | 3.3 | 7.7 | > 100 |
